The term Vz denotes a proportionality between amount in the body and measured concentration, not a real space. Broadly, the Cmax is the highest concentration seen after dosing. Broadly, the Tmax is the time from dosing to the highest level.

Each structure is given as a SMILES string. Where “and” joins values, the source holds several entries; their conditions need not be identical. Equal entries are not always repeated. Where two headings read alike, the source gives them in different places.

One series has as its system beta-adrenergic blocking. The note with it: cited from earlier work.
The conditions of series [1]: preclinical and clinical studies, cited from earlier work.
The subject of series [2] is nociception induced by formalin and carrageenan; mechanical hyperalgesia and mechanical/thermal allodynia. The note with it: Rose et al. (2002); cited from earlier work.
The subject of another series is bladder capacity. In words: Dilute acetic acid irritative model, bladder capacity by cystometry in urethane-anesthetized rats. It counts as in vivo, rat. The note with it: for effectiveness of drug alone on bladder capacity: i.v.; for effective dose range of the drug in the isobologram combinations compared with the drug alone: individual animals, return to 31% of saline control. How it is done: Subsequently, three series at markedly lower doses and at different dose ratios were performed for the purposes of isobologram construction (n=4/group).
Subsequent studies aimed at isobologram construction combined the drugs in dose combinations as shown in the table below (low, middle and high doses for each drug paired).
The abdominal cavity was moistened with saline and closed by covering with a thin plastic sheet in order to maintain access to the bladder for emptying purposes.
Bladder capacity data for each animal were normalized to “% Recovery from Irritation,” and this index was used as the measure of efficacy. Data from experiments in which each of the drugs were administered alone were utilized to create theoretical populations of additive effects for each dose (low, mid and high), and these were compared by one-tailed t-test (individual dose comparisons) and by 2-Way ANOVA (across doses) to the actual combination drug data. The means and standard deviations of each individual treatment's “dose-matched” (low, middle, and high) responses were added together to estimate the mean and standard deviation of the theoretical additive populations for which to compare to the actual data obtained from the combination experiments. The theoretical additive effect population N=(Nantimuscarinic+Nα28 subunit modulator)−1. P<0.050 was considered significant.
Isobologram construction consisted of two methods, both utilizing the same data, but plotting the results either as group means or by individual responses. […] When utilizing individual responses for both drugs alone and the combinations listed in the above table, the target value was 31% of saline control. […] For statistical purposes, the data were analyzed making comparisons for each drug, regardless of whether alone or in combination.

For series [3] the following is noted: for pharmacokinetic drug-drug interaction between oxybutynin and gabapentin: rat, i.v. 3 mg/kg oxybutynin and 100 mg/kg gabapentin.
Series [4] deals with painful symptoms associated with diabetic peripheral neuropathy, post-herpetic neuralgia, and neuropathic pain. Conditions: double-blind, placebo-controlled trials; cited from earlier work.
The mark [5] stands for this setting: analyte gabapentin in rat plasma, i.v. 100 mg/kg gabapentin alone (Gab) or with 3 mg/kg oxybutynin (Com), group Mean.
The mark [6] stands for this setting: analyte gabapentin in rat plasma, i.v. 100 mg/kg gabapentin alone (Gab) or with 3 mg/kg oxybutynin (Com), group Mean, outliers excluded.
Where [7] appears, read: analyte gabapentin in rat plasma, i.v. 100 mg/kg gabapentin alone (Gab) or with 3 mg/kg oxybutynin (Com), individual animals.

For `CC(C)NCC(O)COc1cccc2ccccc12` (stereo not drawn) [propranolol], the “potency of L-enantiomer relative to D-enantiomer” value in the series with beta-adrenergic blocking is reported as 100 times.

For the compound `CC(OC(=O)NCC1(CC(=O)O)CCCCC1)OC(=O)C(C)C` (stereo not drawn) [XP13512], the “blood levels of gabapentin across a broad range of oral doses” value in series [1] (oral) is “dose proportional”. Also, the “absorption from the large intestine” value in series [1] is reported as “absorbed efficiently”.

`NCC1(CC(=O)O)CCCCC1` [Gab, 1-(aminomethyl) cyclohexaneacetic acid]: in series [2], the “effect in neuropathic pain models of mechanical hyperalgesia and mechanical/thermal allodynia” value is “inhibitory effect”; the “effect on nociception induced by formalin and carrageenan” value is given as “block the tonic phase of nociception”. In the series with bladder capacity, the “effectiveness of drug alone on bladder capacity” value was “modest effectiveness” and the “effective dose range of the drug in the isobologram combinations compared with the drug alone” value is “significantly lower”. In series [3] (setting [5]), the “AUC0-∞” value worked out at 1.62e+07 ng·min/mL, the CL was determined as 6.52 mL/min/kg, the Vz was 1.242 L/kg and the t1/2 turned out to be 128 min. Besides, in series [3] (setting [6]), the AUC0-t was determined as 9.45e+06 ng·min/mL and the highest concentration (Cmax) worked out at 98.6 µg/mL. Moreover, in series [3] (setting [7]), the “AUC0-∞” value was 1.95e+07 ng·min/mL; the CL is on record as 5.12 mL/min/kg; the time to peak (Tmax) was 15 min and 30 min; the volume of distribution (Vz) is 0.91 L/kg and 0.89 L/kg. For the same compound, in series [3] (rat plasma, i.v., Table 2), the “comparison of Cmax and AUC0-T data for gabapentin between single-drug group and combination (Com) group” value was “no appreciable difference”. The “pharmacokinetic drug-drug interaction between oxybutynin and gabapentin” value in series [3] is on record as “No evidence of drug-drug interaction”. Besides, the “efficacy for painful symptoms associated with diabetic peripheral neuropathy, post-herpetic neuralgia, and neuropathic pain” value in series [4] is recorded as “effective treatment”.

Regarding `CCN(CC)CC#CCOC(=O)C(O)(c1ccccc1)C1CCCCC1` (stereo not drawn) [Oxy, 4-diethylaminio-2-butynyl phenylcyclohexyglycolate], in the series with bladder capacity, the “effectiveness of drug alone on bladder capacity” value is listed as “modest effectiveness” and the “effective dose range of the drug in the isobologram combinations compared with the drug alone” value is listed as “significantly lower”. The “pharmacokinetic drug-drug interaction between oxybutynin and gabapentin” value in series [3] is “No evidence of drug-drug interaction”.

Regarding `CCNCC#CCOC(=O)C(O)(c1ccccc1)C1CCCCC1` (stereo not drawn) [desethyl oxybutynin, N-desethyl-oxybutynin], the “comparison of Cmax and AUC0-t data for desethyl oxybutynin between oxybutynin (Oxy) group and combination (Com) group” value in series [3] (rat plasma, i.v., Table 4) is “no appreciable difference”.

The record behind these values is patent US20060264509A1, “Methods for treating pain using smooth muscle modulators and a2 subunit calcium channel modulators” (priority 2003, published 2006).
